Some targets named below: Melanocortin receptor 3 (Homo sapiens, UniProt P41968); Motilin receptor (Homo sapiens, UniProt O43193); D(3) dopamine receptor (Homo sapiens, UniProt P35462).
The next assay concerns the target T1, Adenosine receptor A1 (Homo sapiens, UniProt P30542).
T1 sequence (P30542 whole entry): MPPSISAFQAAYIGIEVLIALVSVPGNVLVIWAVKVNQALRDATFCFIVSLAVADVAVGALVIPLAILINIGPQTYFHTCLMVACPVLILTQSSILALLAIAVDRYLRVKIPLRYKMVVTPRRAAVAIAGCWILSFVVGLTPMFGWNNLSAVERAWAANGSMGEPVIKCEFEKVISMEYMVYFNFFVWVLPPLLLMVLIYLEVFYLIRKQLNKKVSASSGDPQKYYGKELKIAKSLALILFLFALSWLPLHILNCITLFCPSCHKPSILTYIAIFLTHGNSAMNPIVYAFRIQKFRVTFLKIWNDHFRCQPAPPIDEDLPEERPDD

The target of another assay is T2, Adenosine receptor A3 (Homo sapiens, UniProt P0DMS8).
T2 sequence (P0DMS8 whole entry): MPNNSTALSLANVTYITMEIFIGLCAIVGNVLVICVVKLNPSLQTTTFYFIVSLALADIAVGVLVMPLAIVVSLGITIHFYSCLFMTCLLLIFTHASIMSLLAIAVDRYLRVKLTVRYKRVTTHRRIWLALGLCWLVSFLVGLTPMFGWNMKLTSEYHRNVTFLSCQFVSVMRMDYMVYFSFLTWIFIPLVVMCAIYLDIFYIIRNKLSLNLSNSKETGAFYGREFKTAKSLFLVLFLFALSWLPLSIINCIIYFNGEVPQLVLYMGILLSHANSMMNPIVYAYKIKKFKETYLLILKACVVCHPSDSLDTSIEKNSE

Assay [1] concerns the target T3, Type-1 angiotensin II receptor (Homo sapiens, UniProt P30556).
T3 sequence (P30556 whole entry): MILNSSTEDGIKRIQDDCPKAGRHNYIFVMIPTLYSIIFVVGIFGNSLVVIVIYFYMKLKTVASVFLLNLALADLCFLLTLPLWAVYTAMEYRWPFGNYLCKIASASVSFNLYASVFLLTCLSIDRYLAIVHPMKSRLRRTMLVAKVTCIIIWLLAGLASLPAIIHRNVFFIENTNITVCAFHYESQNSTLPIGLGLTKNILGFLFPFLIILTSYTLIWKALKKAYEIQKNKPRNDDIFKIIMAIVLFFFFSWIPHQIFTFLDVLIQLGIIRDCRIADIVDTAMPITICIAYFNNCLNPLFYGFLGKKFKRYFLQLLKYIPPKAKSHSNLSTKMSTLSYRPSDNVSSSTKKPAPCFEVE

For assay [2], the target named is Neuronal acetylcholine receptor subunit alpha-4 (Homo sapiens, UniProt P43681).
The target of assay [3] is Growth hormone secretagogue receptor type 1 (Homo sapiens, UniProt Q92847).
For assay [4], the target named is T4, 5-hydroxytryptamine receptor 1A (Homo sapiens, UniProt P08908).
T4 sequence (P08908 whole entry): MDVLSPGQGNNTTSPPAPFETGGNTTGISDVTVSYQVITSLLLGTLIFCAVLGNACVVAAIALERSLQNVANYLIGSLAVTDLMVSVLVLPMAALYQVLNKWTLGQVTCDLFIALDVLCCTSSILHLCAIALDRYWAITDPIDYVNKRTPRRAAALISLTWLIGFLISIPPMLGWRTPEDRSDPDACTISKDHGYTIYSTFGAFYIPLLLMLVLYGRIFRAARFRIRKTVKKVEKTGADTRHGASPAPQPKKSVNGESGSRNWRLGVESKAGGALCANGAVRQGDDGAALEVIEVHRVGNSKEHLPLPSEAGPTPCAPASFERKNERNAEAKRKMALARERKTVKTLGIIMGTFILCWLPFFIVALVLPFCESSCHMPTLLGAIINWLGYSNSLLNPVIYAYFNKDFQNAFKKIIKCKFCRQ
The format is functional, cell-based.

Assay [5] concerns the target 5-hydroxytryptamine receptor 2B (Homo sapiens, UniProt P41595). The class given is functional, cell-based.
Assay [6] addresses T5, 5-hydroxytryptamine receptor 2C (Homo sapiens, UniProt P28335).
T5 sequence (P28335 whole entry): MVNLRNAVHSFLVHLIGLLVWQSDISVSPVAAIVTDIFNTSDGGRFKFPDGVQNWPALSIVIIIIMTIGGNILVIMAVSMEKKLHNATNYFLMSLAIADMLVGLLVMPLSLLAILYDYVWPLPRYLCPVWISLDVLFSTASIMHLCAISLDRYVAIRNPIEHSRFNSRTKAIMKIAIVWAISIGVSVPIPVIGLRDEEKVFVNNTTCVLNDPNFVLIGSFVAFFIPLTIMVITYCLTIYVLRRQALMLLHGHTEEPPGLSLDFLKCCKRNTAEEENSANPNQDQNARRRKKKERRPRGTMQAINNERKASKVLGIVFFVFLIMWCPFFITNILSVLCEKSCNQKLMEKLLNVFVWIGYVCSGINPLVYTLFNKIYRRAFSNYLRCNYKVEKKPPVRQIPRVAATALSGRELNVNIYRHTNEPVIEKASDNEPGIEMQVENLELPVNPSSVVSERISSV

The target of assay [7] is 3',5'-cyclic-AMP phosphodiesterase 4D (Homo sapiens, UniProt Q08499). The format is functional.
Assay [8] addresses T6, Equilibrative nucleoside transporter 1 (Homo sapiens, UniProt Q99808).
T6 sequence (Q99808 whole entry): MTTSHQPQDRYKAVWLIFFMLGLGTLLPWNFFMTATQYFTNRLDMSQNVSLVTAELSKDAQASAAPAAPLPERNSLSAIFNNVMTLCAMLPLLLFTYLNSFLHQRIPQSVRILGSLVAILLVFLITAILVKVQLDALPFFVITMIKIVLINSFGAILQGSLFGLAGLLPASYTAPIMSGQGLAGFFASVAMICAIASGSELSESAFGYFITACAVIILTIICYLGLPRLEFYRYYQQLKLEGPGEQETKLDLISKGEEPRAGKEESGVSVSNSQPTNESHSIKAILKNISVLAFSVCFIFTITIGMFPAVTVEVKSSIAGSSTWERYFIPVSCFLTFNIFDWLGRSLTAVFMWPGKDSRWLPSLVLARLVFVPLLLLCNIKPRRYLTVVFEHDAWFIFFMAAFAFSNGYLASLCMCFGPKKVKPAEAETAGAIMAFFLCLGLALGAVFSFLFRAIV

The target of assay [9] is Sodium-dependent noradrenaline transporter (Homo sapiens, UniProt P23975).

Some results are limits rather than exact numbers.
Also: assay procedure not described here.

Sequence of Neuronal acetylcholine receptor subunit alpha-4 (P43681 whole entry): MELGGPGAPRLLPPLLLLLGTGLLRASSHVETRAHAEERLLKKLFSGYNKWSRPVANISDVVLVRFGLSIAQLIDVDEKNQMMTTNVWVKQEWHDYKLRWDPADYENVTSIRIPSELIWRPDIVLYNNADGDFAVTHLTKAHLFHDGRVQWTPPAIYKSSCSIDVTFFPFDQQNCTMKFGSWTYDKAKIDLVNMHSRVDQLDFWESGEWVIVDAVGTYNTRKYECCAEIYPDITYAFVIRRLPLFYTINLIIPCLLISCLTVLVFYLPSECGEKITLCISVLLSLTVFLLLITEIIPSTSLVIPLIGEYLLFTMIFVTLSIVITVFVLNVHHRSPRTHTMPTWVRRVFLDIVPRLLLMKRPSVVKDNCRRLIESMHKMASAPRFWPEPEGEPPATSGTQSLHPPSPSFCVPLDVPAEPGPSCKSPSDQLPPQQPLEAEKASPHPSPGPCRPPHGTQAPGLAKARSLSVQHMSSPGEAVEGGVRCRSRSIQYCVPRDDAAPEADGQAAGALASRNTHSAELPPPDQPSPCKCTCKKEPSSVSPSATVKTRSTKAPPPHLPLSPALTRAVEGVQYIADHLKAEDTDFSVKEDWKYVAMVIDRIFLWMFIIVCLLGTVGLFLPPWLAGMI
Sequence of 3',5'-cyclic-AMP phosphodiesterase 4D (Q08499 whole entry): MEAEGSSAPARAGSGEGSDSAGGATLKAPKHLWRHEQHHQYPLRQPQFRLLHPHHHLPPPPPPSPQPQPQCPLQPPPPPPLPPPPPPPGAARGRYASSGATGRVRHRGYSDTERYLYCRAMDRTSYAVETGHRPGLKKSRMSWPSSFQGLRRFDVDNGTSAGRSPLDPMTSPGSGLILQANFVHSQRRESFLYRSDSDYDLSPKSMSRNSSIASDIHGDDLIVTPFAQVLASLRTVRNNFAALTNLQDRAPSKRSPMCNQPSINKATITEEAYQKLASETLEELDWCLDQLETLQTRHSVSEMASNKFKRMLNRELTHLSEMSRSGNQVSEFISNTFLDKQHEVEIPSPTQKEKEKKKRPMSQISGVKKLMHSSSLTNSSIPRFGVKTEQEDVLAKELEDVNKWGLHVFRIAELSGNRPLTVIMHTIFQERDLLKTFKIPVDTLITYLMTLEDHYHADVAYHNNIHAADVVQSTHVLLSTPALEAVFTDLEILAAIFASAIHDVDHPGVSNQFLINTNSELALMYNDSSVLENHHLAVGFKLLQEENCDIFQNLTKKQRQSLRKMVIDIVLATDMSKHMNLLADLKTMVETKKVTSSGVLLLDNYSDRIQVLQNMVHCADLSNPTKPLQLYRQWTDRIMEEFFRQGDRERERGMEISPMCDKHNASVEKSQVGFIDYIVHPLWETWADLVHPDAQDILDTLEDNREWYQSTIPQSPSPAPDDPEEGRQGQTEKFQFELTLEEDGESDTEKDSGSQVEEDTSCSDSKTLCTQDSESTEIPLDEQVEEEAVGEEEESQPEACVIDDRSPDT
Sequence of 5-hydroxytryptamine receptor 2B (P41595 whole entry): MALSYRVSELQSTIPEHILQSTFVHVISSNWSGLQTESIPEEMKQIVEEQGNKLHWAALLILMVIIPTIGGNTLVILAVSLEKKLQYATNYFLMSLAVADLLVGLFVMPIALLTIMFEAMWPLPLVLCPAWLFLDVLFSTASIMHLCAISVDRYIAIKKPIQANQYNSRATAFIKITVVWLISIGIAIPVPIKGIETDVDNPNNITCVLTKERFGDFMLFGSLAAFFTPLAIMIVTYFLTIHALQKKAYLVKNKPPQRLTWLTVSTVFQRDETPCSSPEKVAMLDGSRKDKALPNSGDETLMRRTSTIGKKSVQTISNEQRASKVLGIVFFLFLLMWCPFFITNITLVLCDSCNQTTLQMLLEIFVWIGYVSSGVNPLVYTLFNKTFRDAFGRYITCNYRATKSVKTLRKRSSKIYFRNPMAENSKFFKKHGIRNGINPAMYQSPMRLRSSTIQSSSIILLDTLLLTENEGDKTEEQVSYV
Sequence of Melanocortin receptor 3 (P41968 whole entry): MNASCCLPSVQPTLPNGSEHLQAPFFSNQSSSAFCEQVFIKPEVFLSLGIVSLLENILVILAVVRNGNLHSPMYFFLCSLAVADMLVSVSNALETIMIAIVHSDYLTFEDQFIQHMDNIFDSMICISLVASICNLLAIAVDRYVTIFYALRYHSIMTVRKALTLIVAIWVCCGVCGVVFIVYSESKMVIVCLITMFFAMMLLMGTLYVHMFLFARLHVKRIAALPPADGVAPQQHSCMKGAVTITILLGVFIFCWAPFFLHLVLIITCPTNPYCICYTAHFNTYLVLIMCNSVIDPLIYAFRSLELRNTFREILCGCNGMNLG
Sequence of Motilin receptor (O43193 whole entry): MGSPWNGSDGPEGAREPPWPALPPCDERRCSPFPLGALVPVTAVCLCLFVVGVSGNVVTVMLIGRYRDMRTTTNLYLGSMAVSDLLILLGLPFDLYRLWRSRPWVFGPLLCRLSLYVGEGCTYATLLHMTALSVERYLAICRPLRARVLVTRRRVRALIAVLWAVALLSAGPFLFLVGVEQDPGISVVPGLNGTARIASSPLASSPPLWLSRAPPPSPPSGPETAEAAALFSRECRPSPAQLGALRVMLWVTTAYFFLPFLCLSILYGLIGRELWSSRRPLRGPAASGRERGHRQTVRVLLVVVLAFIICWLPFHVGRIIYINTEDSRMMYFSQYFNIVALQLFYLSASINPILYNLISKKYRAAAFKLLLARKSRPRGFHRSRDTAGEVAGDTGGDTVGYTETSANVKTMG
Sequence of Growth hormone secretagogue receptor type 1 (Q92847 whole entry): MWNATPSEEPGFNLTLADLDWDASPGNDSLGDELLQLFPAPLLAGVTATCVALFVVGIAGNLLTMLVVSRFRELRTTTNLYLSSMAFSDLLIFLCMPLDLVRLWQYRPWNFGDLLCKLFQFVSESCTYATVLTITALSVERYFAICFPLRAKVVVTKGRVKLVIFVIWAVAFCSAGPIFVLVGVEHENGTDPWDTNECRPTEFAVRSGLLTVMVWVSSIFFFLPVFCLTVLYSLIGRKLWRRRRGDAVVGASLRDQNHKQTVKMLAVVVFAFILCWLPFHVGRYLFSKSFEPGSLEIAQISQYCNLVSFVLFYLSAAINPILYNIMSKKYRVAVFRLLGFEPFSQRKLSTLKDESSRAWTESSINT
Sequence of Sodium-dependent noradrenaline transporter (P23975 whole entry): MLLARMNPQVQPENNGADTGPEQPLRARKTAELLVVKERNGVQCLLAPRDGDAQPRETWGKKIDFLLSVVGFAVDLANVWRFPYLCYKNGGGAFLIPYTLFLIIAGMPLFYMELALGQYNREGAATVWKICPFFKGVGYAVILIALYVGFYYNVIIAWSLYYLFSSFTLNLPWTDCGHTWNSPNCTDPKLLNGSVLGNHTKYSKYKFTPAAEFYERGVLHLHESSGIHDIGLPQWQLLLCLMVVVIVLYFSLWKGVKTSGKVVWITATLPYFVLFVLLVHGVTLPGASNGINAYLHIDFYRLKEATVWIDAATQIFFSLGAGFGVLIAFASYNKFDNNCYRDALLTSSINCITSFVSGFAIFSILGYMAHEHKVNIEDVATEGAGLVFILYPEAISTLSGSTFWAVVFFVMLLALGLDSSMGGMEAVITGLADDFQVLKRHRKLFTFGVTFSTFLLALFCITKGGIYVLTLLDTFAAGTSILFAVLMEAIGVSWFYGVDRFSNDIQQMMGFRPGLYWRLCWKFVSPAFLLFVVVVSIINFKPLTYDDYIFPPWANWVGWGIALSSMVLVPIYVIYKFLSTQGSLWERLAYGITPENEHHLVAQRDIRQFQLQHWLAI
Sequence of D(3) dopamine receptor (P35462 whole entry): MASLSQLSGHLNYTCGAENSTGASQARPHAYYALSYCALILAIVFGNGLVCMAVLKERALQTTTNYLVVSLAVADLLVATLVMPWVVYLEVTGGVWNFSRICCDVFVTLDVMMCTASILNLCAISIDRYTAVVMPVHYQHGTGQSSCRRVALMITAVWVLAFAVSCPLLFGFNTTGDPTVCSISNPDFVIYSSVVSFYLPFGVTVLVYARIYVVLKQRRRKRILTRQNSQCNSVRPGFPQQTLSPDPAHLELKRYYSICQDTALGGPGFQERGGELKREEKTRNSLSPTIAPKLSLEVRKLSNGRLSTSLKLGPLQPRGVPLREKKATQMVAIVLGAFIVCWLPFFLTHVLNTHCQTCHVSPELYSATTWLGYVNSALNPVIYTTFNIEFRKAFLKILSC

Regarding `C=CC1=C(C(=O)O)N2C(=O)[C@@H](NC(=O)/C(=N\O)c3csc(N)n3)[C@H]2SC1`, the AC50 (as a rule, the concentration giving half of the maximal activity seen) on Adenosine receptor A1 was > 30 µM; at Adenosine receptor A3, > 30 µM; in [1], > 30 µM; in assay [2], > 10 µM; in [3], > 30 µM; in assay [4], > 10 µM. Moreover, the AC50 in assay [5] is > 10 µM; in [6] it was > 30 µM; on Melanocortin receptor 3, > 30 µM; on Motilin receptor it was > 10 µM; in assay [7] it was > 30 µM; in assay [8], > 30 µM. The AC50 (in assay [9]; at D(3) dopamine receptor) was > 30 µM each time.

Consider `CN(C)CCOC(c1ccc(Cl)cc1)c1ccccn1` (centres undefined) [CARBINOXAMINE], for which the AC50 (at Adenosine receptor A1; at Adenosine receptor A3; in [1]; in assay [2]; in [3]; in assay [4]) was > 30 µM each time. Also, the AC50 (in assay [5]; in [6]; on Melanocortin receptor 3; on Motilin receptor; in assay [7]; in [8]) was > 30 µM in each case. The values for the AC50 (in assay [9]; at D(3) dopamine receptor) were 24 µM and > 30 µM, respectively.

Regarding `COC(=O)CCc1ccc(OCC(O)CNC(C)C)cc1` (centres undefined) [ESMOLOL], the AC50 (at Adenosine receptor A1; on Adenosine receptor A3; in [1]; in assay [2]; in assay [3]; in [4]) was > 30 µM in each case. The AC50 (in [5]; in [6]; on Melanocortin receptor 3; at Motilin receptor; in [7]; in assay [8]) was > 30 µM in each case. Besides, the AC50 (in [9]; on D(3) dopamine receptor) was > 30 µM each time.

`CC(C)C[C@H](NC(=O)[C@H](Cc1ccccc1)NC(=O)c1cnccn1)B(O)O` [BORTEZOMIB]: the AC50 (at Adenosine receptor A1; on Adenosine receptor A3; in assay [1]; in assay [2]; in [3]; in assay [4]) was > 30 µM each time. Further, the AC50 (in assay [5]; in assay [6]; on Melanocortin receptor 3; at Motilin receptor; in assay [7]; in assay [8]) was > 30 µM throughout. For the same molecule, the AC50 (in assay [9]; on D(3) dopamine receptor) was > 30 µM in each case.

Regarding `CC(C)(CO)c1cc2cc(NC(=O)C3(c4ccc5c(c4)OC(F)(F)O5)CC3)c(F)cc2n1C[C@@H](O)CO` [TEZACAFTOR], the AC50 (on Adenosine receptor A1; at Adenosine receptor A3; in assay [1]; in [2]; in assay [3]; in [4]) was > 30 µM each time. In addition, the AC50 in [5] was > 30 µM; in assay [6], > 30 µM; at Melanocortin receptor 3 it was > 30 µM; on Motilin receptor it was > 30 µM; in assay [7], 8.7 µM; in assay [8], > 30 µM. Besides, the AC50 (in [9]; at D(3) dopamine receptor) was > 30 µM throughout.

`CCOCC(O)COc1ccc(NC(=O)CC[S+](C)C)cc1` (centres undefined): the AC50 (on Adenosine receptor A1; at Adenosine receptor A3; in [1]; in assay [2]; in assay [3]; in assay [4]) was > 30 µM throughout. Besides, the AC50 (in assay [5]; in assay [6]; at Melanocortin receptor 3; at Motilin receptor; in assay [7]; in assay [8]) was > 30 µM in each case. Besides, the AC50 (in assay [9]; on D(3) dopamine receptor) was > 30 µM in each case.

In the case of `CO[C@@H]1[C@@H](OC(N)=O)[C@@H](O)[C@H](Oc2ccc3c(O)c(NC(=O)c4ccc(O)c(CC=C(C)C)c4)c(=O)oc3c2C)OC1(C)C` [NOVOBIOCIN], the concentration at half-maximal activity (AC50) (at Adenosine receptor A1; on Adenosine receptor A3; in [1]; in [2]; in [3]; in assay [4]) was > 30 µM each time. Further, the AC50 (in assay [5]; in assay [6]; at Melanocortin receptor 3; on Motilin receptor; in assay [7]; in assay [8]) was > 30 µM in each case. Also, the AC50 (in assay [9]; at D(3) dopamine receptor) was > 30 µM each time.

For the molecule `O=C1[C@@H]2[C@H]3CC[C@H](C3)[C@@H]2C(=O)N1C[C@@H]1CCCC[C@H]1CN1CCN(c2nsc3ccccc23)CC1` [LURASIDONE], the AC50 at Adenosine receptor A1 was > 30 µM; on Adenosine receptor A3, 9.9 µM; in assay [1], > 30 µM; in assay [2], > 10 µM; in assay [3], > 30 µM; in assay [5], > 30 µM. The AC50 in assay [6] is 25 µM; on Melanocortin receptor 3 it was > 30 µM; at Motilin receptor it was > 30 µM; in assay [7], > 30 µM; in assay [8], > 30 µM; in [9] it was > 30 µM. Half-maximal activity on D(3) dopamine receptor (AC50) was put at 0.43 µM.

On to `CC(C)NCC(O)COc1ccc(CC(N)=O)cc1` (centres undefined) [ATENOLOL], for which the AC50 (at Adenosine receptor A1; on Adenosine receptor A3; in assay [1]; in assay [2]; in [3]; in assay [4]) was > 30 µM in each case. Besides, the AC50 (in assay [6]; at Melanocortin receptor 3; on Motilin receptor; in [7]; in assay [8]; in assay [9]) was > 30 µM throughout. Also, at D(3) dopamine receptor, the AC50 is > 30 µM.

These data come from ChEMBL document CHEMBL5291721, “A preclinical secondary pharmacology resource illuminates target-adverse drug reaction associations of marketed drugs” (Nat Commun, 2023).
